Data taken from patent US20110160249A1, “5-LIPOXYGENASE-ACTIVATING PROTEIN INHIBITOR” (priority 2008, published 2011).
Values joined by “and” are separate entries in the source; they are usually repeats but may differ in a detail not shown here. Equal values may be shown once. Read-outs that look alike come from different tables or passages of the source.

Columns and labels:
[1] = pKa and log P of the sodium salt; type: physicochemical
[2] = Thermodynamic Aqueous Solubility by HPLC; type: physicochemical; settings: water, 25° C., 24 hours
Protocol: Aqueous solubility was determined by suspending sufficient compound in water to give a maximum final concentration of ≧10 mg·ml^−1 of the parent free-form of the compound. The suspension was equilibrated at 25° C. for 24 hours then the pH was measured. The suspension was then filtered through a glass fibre C filter into a 96 well plate. The filtrate was then diluted by a factor of 101. Quantitation was by HPLC with reference to a standard solution of approximately 0.1 mg·ml^−1 in DMSO. Different volumes of the standard, diluted and undiluted sample solutions were injected. The solubility was calculated using the peak areas determined by integration of the peak found at the same retention time as the principal peak in the standard injection.
Analysis was performed on an Agilent HP1100 series system equipped with a diode array detector and using ChemStation software vB.02.01-SR1.

Solubility vs. pH = type: physicochemical; settings: 0.15 M aqueous sodium chloride, saline or isotonic, thermodynamic from solid, 0.15M sodium chloride (aqueous), read-out: Solubility, Concentration
Protocol: Suspensions were made up in 0.15M sodium chloride (aqueous) and the pH adjusted to the appropriate value with either diluted hydrochloric acid or sodium hydroxide, to ensure that different salt forms with different solubilities are not produced in solution. The suspension was then allowed to equilibrate for 2 h, and the pH was checked and re-adjusted if required.
The pH of the resultant solution was measured, and the solubility was calculated by HPLC-UV assay of the compound concentration in solution.

[3] = Liquid formulations (oral solutions/suspensions); type: physicochemical
Protocol: Values of pH reported were estimated based on pH indicating strips. […] Accordingly, provided in certain embodiments herein were formulations having a pH above about 9, above about 10 or of about 10. In certain embodiments, the formulation was buffered at a pH of about 10. All formulations prepared were sonicated for about 10 minutes.

human FLAP = molecular target: T1, human FLAP (Homo sapiens, UniProt P20292); assay: FLAP binding assay; settings: individual tests 1-8; read-out: IC50 (nM), Inhibition of FLAP Radioligand Binding
T1 sequence (P20292 1-161): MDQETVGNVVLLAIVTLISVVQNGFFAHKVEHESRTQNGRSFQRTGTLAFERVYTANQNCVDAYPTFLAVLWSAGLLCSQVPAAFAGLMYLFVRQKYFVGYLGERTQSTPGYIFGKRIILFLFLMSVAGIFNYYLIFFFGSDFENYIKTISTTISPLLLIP

LTB4 in Rat Whole Blood = assay: Rat whole blood LTB4 inhibition assay; type: cell-based; settings: mean of 5 tests
CYP 2C9 = molecular target: T2, CYP 2C9 (Homo sapiens, UniProt P11712); assay: Extracellular Cytochrome P450 inhibition, 2C9; type: in vitro ADME; settings: diclofenac 4′-hydroxylation
T2 construct: from tissue
T2 sequence (P11712 whole entry): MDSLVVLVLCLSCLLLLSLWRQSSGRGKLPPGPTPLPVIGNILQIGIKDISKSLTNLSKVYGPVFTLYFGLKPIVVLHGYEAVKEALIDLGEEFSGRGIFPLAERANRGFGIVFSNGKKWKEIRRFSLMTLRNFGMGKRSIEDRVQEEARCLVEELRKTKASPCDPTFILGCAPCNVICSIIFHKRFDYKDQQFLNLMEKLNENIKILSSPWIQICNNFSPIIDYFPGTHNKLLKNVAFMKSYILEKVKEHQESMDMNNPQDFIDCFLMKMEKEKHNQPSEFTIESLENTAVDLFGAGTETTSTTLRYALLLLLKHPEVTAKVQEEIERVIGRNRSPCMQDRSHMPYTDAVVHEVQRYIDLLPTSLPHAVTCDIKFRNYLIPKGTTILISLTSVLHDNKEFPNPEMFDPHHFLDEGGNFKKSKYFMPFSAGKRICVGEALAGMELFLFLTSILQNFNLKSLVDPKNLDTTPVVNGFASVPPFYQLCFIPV

CYP 2C19 = molecular target: T3, CYP 2C19 (Homo sapiens, UniProt P33261); assay: Extracellular Cytochrome P450 inhibition, 2C19; type: in vitro ADME; settings: mephenytoin 4′-hydroxylation
T3 construct: from tissue
T3 sequence (P33261 whole entry): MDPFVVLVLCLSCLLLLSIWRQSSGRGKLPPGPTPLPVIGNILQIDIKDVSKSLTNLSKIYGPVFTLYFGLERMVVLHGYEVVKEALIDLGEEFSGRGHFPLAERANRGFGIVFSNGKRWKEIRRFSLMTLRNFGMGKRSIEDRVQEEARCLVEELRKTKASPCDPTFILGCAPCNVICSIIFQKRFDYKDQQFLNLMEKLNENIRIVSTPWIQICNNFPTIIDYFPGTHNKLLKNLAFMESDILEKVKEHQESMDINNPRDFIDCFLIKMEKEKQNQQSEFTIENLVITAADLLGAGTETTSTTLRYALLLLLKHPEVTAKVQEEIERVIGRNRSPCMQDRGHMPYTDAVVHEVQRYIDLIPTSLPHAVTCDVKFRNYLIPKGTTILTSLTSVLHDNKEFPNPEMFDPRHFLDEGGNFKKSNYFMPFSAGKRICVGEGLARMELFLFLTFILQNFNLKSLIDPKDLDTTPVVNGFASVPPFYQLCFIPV
From the text: Final solvent concentrations were 1% (v/v) or less.

CYP 2D6 = molecular target: T4, CYP 2D6 (Homo sapiens, UniProt P10635); assay: Extracellular Cytochrome P450 inhibition, 2D6; type: in vitro ADME; settings: dextromethorphan O-demethylation
T4 construct: microsomes were incubated test substrates, which were known to be metabolized by CYP enzymes, with or without Compound 2; from tissue
T4 sequence (P10635 whole entry): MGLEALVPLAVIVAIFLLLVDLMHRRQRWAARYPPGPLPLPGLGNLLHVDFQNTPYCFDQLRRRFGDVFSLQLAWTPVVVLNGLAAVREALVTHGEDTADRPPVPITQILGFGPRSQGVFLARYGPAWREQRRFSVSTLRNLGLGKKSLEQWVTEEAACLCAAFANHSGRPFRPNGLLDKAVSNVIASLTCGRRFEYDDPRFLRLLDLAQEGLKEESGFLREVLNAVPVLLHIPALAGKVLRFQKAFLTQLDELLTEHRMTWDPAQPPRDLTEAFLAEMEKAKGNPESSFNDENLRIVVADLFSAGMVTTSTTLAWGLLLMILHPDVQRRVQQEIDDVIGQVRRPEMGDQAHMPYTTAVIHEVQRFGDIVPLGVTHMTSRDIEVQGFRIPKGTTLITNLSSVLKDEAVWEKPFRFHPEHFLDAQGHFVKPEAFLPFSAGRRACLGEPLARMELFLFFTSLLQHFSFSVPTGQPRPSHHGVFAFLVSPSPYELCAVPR

[4] = Single dose kinetics in beagle dogs; type: in vivo; settings: female, dog, plasma, Fasted
[5] = mouse, in vivo, po, 250 mg/kg/day
CYP3A4 = assay: Cellular Cytochrome P450 induction, CYP3A4; settings: tested at 10 μM, cryopreserved human hepatocytes
[6] = IV, 4:1 PEG400:Water, 0.67 mg/kg

Structure (SMILES): CCOc1ccc(-c2ccc(Cn3c(CC(C)(C)C(=O)[O-])c(SC(C)(C)C)c4cc(OCc5ccc(C)cn5)ccc43)cc2)cn1.[Na+] [Compound 2, sodium 3-[3-(tert-butylsulfanyl)-1-[4-(6-ethoxy-pyridin-3-yl)benzyl]-5-(5-methyl-pyridin-2-yl-methoxy)-1H-indol-2-yl]-2,2-dimethylpropionate]
- pKa [1]: 3.45
- Concentration of filtrate (as mg/mL of free base) [2]: greater than 10 mg/mL
- pH of unfiltered saturated solution [2]: above 9
- solubility at 2 h (Solubility vs. pH; pH 1.1): 26 µg/mL
- solubility at 2 h (Solubility vs. pH; pH 3.8): < 0.1 µg/mL
- solubility at 2 h (Solubility vs. pH; pH 6.9): 0.7 µg/mL
- solubility at 2 h (Solubility vs. pH; pH 9.0): 3500 µg/mL
- solubility at 2 h (Solubility vs. pH; pH 9.8): > 10000 µg/mL
- solubility at 2 h (Solubility vs. pH; pH 11.2): > 10000 µg/mL
- Results (liquid formulation) ([3]; 0.010M sodium carbonate buffer, 1% v/v Lutrol and 0.05% splenda, pH 10, ~10 mg/mL): Clear solution
- Results (liquid formulation) ([3]; 0.010M sodium carbonate buffer, 2% v/v ethanol and 0.05% splenda, pH 10, 10 mg/mL): Clear solution
- Results (liquid formulation) ([3]; 0.010M sodium carbonate buffer, 5% v/v Ethanol and 0.05% splenda, pH 10, ~10 mg/mL): Some undissolved
- Results (liquid formulation) ([3]; 0.010M sodium carbonate buffer, 5% v/v Simple syrup, pH 10, 10 mg/mL): Some undissolved
- Results (liquid formulation) ([3]; 0.010M sodium carbonate buffer, pH 10, 10 mg/mL): Clear solution
- Results (liquid formulation) ([3]; Vehicle 0.5% Methylcellulose, 3.33 mg/mL): Suspension
- IC50 (human FLAP): 4.9 nM and 4.1 nM and 1.8 nM
- IC50 (LTB4 in Rat Whole Blood): 239 nM
- IC90 (LTB4 in Rat Whole Blood): 1630 nM
- IC50 (CYP 2C9): > 50000 nM
- IC50 (CYP 2C19): > 40000 nM
- IC50 (CYP 2D6): > 50000 nM
- AUC(0-inf) [4, 6]: 17600 ng·h/mL
- Cmax [4, 6]: 12000 ng/mL
- Tmax [4, 6]: 1.02 min
- bioavailability [4, 6]: 100%
- clearance ([4]; IV, 4:1 PEG400:Water, 0.67 mg/kg, read-out: CLp): 0.6 mL/min/kg
- Vd ([4]; IV, 4:1 PEG400:Water, 0.67 mg/kg, read-out: VdSS): 0.2 L/kg
- Cmax ([4]; Oral, 0.5% Methylcellulose, 5 mg/kg): 12400 ng/mL
- necropsy, gross abnormalities [5]: no gross abnormalities
- induction of CYP3A4 (CYP3A4): No apparent induction
